We go through six compounds from patent US20030215462A1, “Use of UGT inhibitors to increase bioavailability” (priority 2001, published 2003).

Several values for one entry are separate records, joined by “and”; a condition that tells them apart may be missing. Equal values may be shown once. Read-outs that look alike come from different tables or passages of the source.

The test system of data set [1] is UGT enzymes of human liver microsomes. The data set can be described thus: Inhibition of 7-HFC glucuronidation in human liver microsomes. It is filed as biochemical. As to conditions: 7-HFC 50 μM, human liver microsomes 100 μg/ml, 15 min. Background: Microsomes from liver hold many membrane-bound enzymes, among them those of drug oxidation.
The test system of data set [2] is T1, UGT enzymes of human liver microsomes.
T1 construct: percentage of control metabolism, 7-HFC glucuronidation; percentage of control metabolism, 7-HFC glucuronidation
Described as above. It is filed as biochemical. As to conditions: 7-HFC 50 μM, human liver microsomes 100 μg/ml, 15 min.

The subject of data set [3] is UGT enzymes of human liver microsomes. In words: Inhibition of raloxifene glucuronidation (G1, G2) in human liver microsomes. In kind it is biochemical. The source says:
Compounds were eluted using a binary solvent gradient system. […] Solvent B was methanol. […] Detection was at 280 nm.

Data set [4] has as its target T2, UGT1A1 (Homo sapiens, UniProt P22309).
T2 sequence (P22309 26-533): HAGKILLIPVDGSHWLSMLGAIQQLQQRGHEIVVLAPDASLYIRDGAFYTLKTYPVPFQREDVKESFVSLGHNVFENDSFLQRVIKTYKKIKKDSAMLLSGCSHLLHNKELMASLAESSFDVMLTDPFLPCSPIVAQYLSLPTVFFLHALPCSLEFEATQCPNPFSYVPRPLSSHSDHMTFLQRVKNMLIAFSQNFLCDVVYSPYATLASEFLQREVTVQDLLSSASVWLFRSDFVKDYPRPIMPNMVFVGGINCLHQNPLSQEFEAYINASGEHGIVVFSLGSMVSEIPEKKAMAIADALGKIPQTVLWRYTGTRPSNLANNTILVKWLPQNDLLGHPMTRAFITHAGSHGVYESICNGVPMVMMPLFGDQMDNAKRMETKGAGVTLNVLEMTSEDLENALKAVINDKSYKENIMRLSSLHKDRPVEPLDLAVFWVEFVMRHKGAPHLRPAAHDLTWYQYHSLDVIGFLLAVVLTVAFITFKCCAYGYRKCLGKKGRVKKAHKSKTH
In words: in vitro.
Experimental: (§1) Compounds were eluted using a binary solvent gradient system. Solvent A was water brought to pH 8 with NH4OH. Solvent B was methanol. Solvent flow rate was 1 ml/min and the column temperature was maintained at 50° C. Detection was at 280 nm. […] The system was then returned to the initial conditions and equilibrated for 3 min.

Data set [5] has as its target T3, UGT1A3 (Homo sapiens, UniProt P35503).
T3 sequence (P35503 29-534): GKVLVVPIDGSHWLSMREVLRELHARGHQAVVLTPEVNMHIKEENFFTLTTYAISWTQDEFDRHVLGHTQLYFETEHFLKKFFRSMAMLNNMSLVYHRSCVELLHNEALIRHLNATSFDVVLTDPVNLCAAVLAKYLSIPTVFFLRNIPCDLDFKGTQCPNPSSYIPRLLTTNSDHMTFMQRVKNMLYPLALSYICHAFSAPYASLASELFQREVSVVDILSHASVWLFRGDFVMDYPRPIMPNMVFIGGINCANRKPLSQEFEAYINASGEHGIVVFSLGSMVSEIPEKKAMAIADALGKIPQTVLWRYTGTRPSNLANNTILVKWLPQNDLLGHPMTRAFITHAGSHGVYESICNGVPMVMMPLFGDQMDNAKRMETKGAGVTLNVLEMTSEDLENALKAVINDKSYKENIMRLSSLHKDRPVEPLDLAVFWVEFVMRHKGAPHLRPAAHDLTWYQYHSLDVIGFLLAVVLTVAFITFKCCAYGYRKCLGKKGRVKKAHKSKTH
In words: in vitro.
Experimental: as §1

Data set [6] addresses T4, UGT1A10 (Homo sapiens, UniProt Q9HAW8).
T4 sequence (Q9HAW8 26-530): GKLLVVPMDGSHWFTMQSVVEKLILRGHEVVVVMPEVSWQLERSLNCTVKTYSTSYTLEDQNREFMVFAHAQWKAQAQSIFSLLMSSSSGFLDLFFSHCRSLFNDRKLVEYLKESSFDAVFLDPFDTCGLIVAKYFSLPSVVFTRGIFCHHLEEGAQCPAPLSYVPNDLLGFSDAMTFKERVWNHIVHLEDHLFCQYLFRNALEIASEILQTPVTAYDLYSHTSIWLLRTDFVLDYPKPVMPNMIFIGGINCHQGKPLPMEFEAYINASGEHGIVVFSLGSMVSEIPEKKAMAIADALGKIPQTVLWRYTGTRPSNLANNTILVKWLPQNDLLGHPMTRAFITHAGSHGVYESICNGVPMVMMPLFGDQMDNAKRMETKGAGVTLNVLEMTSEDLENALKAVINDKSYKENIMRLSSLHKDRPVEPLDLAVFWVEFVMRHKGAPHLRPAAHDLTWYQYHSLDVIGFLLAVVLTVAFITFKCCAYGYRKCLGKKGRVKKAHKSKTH
The data set can be described thus: in vitro. As to conditions: pH 7.5, % of control metabolism.
Experimental: as §1

The target in data set [7] is T2, UGT1A1. The data set can be described thus: Inhibition of raloxifene glucuronidation by recombinant UGT1A1 Supersomes. As to conditions: UGT1A1.
Experimental: as §1
In data set [8] the target is T3, UGT1A3. The data set can be described thus: Inhibition of raloxifene glucuronidation by recombinant UGT1A3 Supersomes. The following applies: UGT1A3.
Experimental: as §1
Data set [9] concerns the target T5, UGT1A9 (Homo sapiens, UniProt O60656).
T5 sequence (O60656 26-530): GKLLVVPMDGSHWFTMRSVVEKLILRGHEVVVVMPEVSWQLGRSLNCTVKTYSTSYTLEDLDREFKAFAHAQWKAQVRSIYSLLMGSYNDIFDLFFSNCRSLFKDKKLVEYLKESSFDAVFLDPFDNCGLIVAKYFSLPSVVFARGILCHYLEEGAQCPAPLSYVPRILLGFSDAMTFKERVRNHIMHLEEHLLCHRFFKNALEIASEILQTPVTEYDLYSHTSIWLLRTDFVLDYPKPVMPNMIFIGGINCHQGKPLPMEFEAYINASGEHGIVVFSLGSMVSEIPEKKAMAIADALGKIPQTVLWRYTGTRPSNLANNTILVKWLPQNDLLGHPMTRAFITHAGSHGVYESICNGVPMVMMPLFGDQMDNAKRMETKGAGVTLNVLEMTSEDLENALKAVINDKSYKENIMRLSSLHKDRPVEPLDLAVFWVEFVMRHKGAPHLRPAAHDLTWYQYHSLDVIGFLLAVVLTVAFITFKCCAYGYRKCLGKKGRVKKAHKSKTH
The data set can be described thus: Inhibition of raloxifene glucuronidation by recombinant UGT1A9 Supersomes. The following applies: for activity at 15 min, 50 µM: human, Supersomes with recombinant human UGT1A9, pH 7.5, probe raloxifene 50 μM.
Experimental: as §1

Data set [10] addresses T4, UGT1A10. The data set can be described thus: Inhibition of raloxifene glucuronidation by recombinant UGT1A10 Bacculosomes. The following applies: UGT1A10.
Experimental: as §1
The conditions of data set [11]: humans; cited from earlier work.
Data set [12] concerns the target T5, UGT1A9. The data set can be described thus: in vitro. The following applies: pH 7.5, % of control metabolism.
Experimental: as §1
Setting [13] is: G1, inhibitor 500 μM, raloxifene 50 μM, human liver microsomes 250 μg/ml, 15 min.
Setting [14] is: G2, inhibitor 500 μM, raloxifene 50 μM, human liver microsomes 250 μg/ml, 15 min.
[15] abbreviates: raloxifene 50 μM, inhibitor 100 μM.
Setting [16] is: pH 7.5, % of control metabolism, raloxifene G1.
[17] abbreviates: pH 7.5, % of control metabolism, raloxifene G2.
Setting [18] is: pH 7.5, Inhibition of raloxifene glucuronidation, G1, UGT1A1.
Setting [19] is: pH 7.5, Inhibition of raloxifene glucuronidation, G2, UGT1A1.
Where [20] appears, read: pH 7.5, Inhibition of raloxifene glucuronidation, G1, UGT1A3.
Setting [21] is: pH 7.5, Inhibition of raloxifene glucuronidation, G2, UGT1A3.

On to `CC(C)[C@@H]1CC[C@@H](C)C[C@H]1O` [(L)-Menthol], for which the “% of control metabolism (SD, n = 3), 7-HFC glucuronidation” value was 72 (1) % in data set [1] (inhibitor 1000 μM); 53 (0) % in [1] (inhibitor 2000 μM); 75 (2), % and 80 (2) % in data set [2] (inhibitor 500 μM). Moreover, the “% of control metabolism (SD, n = 3), raloxifene glucuronide G1” value in data set [3] is recorded as 108 (4) %. Also, the “% of control metabolism (SD, n = 3), raloxifene glucuronide G2” value in data set [3] is 97 (2) %.

Turning to `COc1c(C)c2c(c(O)c1C/C=C(\C)CCC(=O)O)C(=O)OC2` [Mycophenolic acid, reference compound], in data set [2] (inhibitor 500 μM), the “% of control metabolism (SD, n = 3), 7-HFC glucuronidation” value was 83 (2) %. The “% of control metabolism (SD, n = 3), raloxifene glucuronide G1” value in data set [3] (G1, inhibitor 100 μM, raloxifene 50 μM, human liver microsomes 250 μg/ml, 15 min) is 89 (3) %; in data set [3] (setting [13]), 43 (5) %. The “% of control metabolism (SD, n = 3), raloxifene glucuronide G2” value is recorded as 89 (2) % in [3] (G2, inhibitor 100 μM, raloxifene 50 μM, human liver microsomes 250 μg/ml, 15 min) and 47 (1) % in [3] (setting [14]). In [3] (setting [15]), the “% of control metabolism, raloxifene G1” value is given as 89 (3) %. The “% of control metabolism, raloxifene G2” value in data set [3] (setting [15]) was 89 (2) %. Moreover, the activity at 15 min, 50 µM worked out at 90% in [4] (setting [16]); 89% in data set [4] (setting [17]); 90% in data set [4] (setting [18]); 89% in data set [4] (setting [19]); 95% in [5] (setting [16]); 87% in data set [5] (setting [17]). Also, the activity at 15 min, 50 µM amounted to 95% in data set [5] (setting [20]); 87% in [5] (setting [21]); 110% in [6] (raloxifene G1); 98% in [6] (raloxifene G2); 81% in [9] (formation of glucuronide G1, % of control metabolism, raloxifene G1, UGT1A9, inhibitor 50 μM); 83% in data set [9] (formation of glucuronide G2, % of control metabolism, raloxifene G2, UGT1A9, inhibitor 50 μM). The “inhibition of raloxifene glucuronidation, in words” value in data set [7], in [8], in data set [9] (UGT1A9) and in [10] was “poor inhibitors” each time. The “Inhibition of raloxifene glucuronidation, UGT1A9, second line per inhibitor (G2)” value in [9] (second line (G2, metabolite not given), inhibitor 50 μM, raloxifene 50 μM, 250 μg/ml Supersomes, 1 mM UDPGA, 15 min) is listed as 83 (3).

On to `CC(=O)OC1CC(C)CCC1C(C)C` (single isomer, unassigned; (-)) [(−)-Menthyl acetate], for which the “% of control metabolism (SD, n = 3), 7-HFC glucuronidation” value in data set [1] (inhibitor 1000 μM) is 32 (1) %; in data set [1] (inhibitor 2000 μM), 26 (1) %; in data set [2] (inhibitor 100 μM), 86 (2) %; in data set [2] (inhibitor 200 μM), 72 (2) %; in data set [2] (inhibitor 500 μM), 53 (2), % and 53 (1) %. Further, the “% of control metabolism (SD, n = 3), raloxifene glucuronide G1” value in [3] (setting [13]) is 76 (1) %. Moreover, the “% of control metabolism (SD, n = 3), raloxifene glucuronide G2” value in [3] (setting [14]) was 69 (0) %.

With `O=C(O)c1ccccc1O` [Salicylic acid], the “% of control metabolism (SD, n = 3), 7-HFC glucuronidation” value in [1] (inhibitor 1000 μM) was 47 (1) %; in [1] (inhibitor 2000 μM) it was 35 (1) %; in [2] (inhibitor 100 μM) it was 84 (1) %; in data set [2] (inhibitor 200 μM), 75 (2) %; in [2] (inhibitor 500 μM), 64 (0), % and 63 (1) %. The “% of control metabolism (SD, n = 3), raloxifene glucuronide G1” value in data set [3] (setting [13]) is reported as 92 (2) %. Besides, the “% of control metabolism (SD, n = 3), raloxifene glucuronide G2” value in [3] (setting [14]) was 94 (2) %.

`CCc1c2c(nc3ccc(OC(=O)N4CCC(N5CCCCC5)CC4)cc13)-c1cc3c(c(=O)n1C2)COC(=O)[C@]3(O)CC` [irinotecan]: the absolute oral bioavailability result in data set [11] was “approximately 13%”.

With `COc1cc(C2Oc3cc([C@H]4Oc5cc(O)cc(O)c5C(=O)[C@@H]4O)ccc3OC2CO)ccc1O` (some centres unmarked) [Silibinin], the activity at 15 min, 10 µM in data set [4] (setting [16]) is 69%; in data set [4] (setting [17]), 63%; in data set [5] (setting [16]) it was 81%; in [5] (setting [17]) it was 56%; in data set [5] (setting [20]), 81%; in [5] (setting [21]) it was 56%. The activity at 15 min, 10 µM in data set [12] (raloxifene G1) was 93%; in [12] (raloxifene G2), 72%. Also, the activity at 15 min, 25 µM in data set [4] (setting [16]) is 46%; in data set [4] (setting [17]) it was 33%; in data set [4] (setting [18]), 46%; in [4] (setting [19]), 33%; in data set [5] (setting [16]) it was 59%; in [5] (setting [17]), 32%. For the same compound, the activity at 15 min, 25 µM in data set [5] (setting [20]) is 58%; in [5] (setting [21]), 32%; in data set [12] (raloxifene G1), 74%; in data set [12] (raloxifene G2), 47%. The activity at 15 min, 50 µM was found to be 18% in data set [4] (setting [16]); 7% in data set [4] (setting [17]); 18% in [4] (setting [18]); 7% in [4] (setting [19]); 37% in [5] (setting [16]); 10% in data set [5] (setting [17]). Moreover, the activity at 15 min, 50 µM stood at 37% in data set [5] (setting [20]); 10% in data set [5] (setting [21]); 59% in data set [12] (raloxifene G1); 22% in data set [12] (raloxifene G2); 56% in data set [6] (raloxifene G1); 64% in data set [6] (raloxifene G2).
